Calls of active or inactive are those of the source.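 The calls were made as follows: active = IC50 of 20 µM or lower; inactive = the rest.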
System: HL-1 cardiomyocytes, H2O2 injury, ATP luminescence, 2 h
Experiment: protection of HL-1 cardiomyocytes from peroxide injury, dose response, cell-based, ATP luminescence (AID 602215);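 also: potency is for protection so actives raise ATP signal against peroxide damage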

Question: `COc1ccc2[nH]c(=O)c(CN(Cc3cccnc3)S(=O)(=O)c3ccccc3F)cc2c1` was tested. Which IC50 did it give?
Answer: > 79 µM (inactive)

Question: `CCOc1cc(/C=C(\C#N)C(=O)Nc2ccc(S(N)(=O)=O)cc2)ccc1OCCN1CCOCC1` was tested. Which IC50 did it give?
Answer: > 79 µM (inactive)

Question: With `c1ccc(-c2nc(-n3ccnc3)nc(-n3ccnc3)n2)cc1` as the molecule, how does the IC50 read?
Answer: > 79 µM (inactive)

Question: How did the IC50 turn out when `COc1ccc(NC(=O)c2cc(-c3ccccn3)nc3ccccc23)cc1S(=O)(=O)N(C)C` was run?
Answer: > 79 µM (inactive)

Question: With `Cc1nc(N2CCN(c3ccccn3)CC2)c2c(C)c(C(=O)Nc3ccc(F)cc3)sc2n1` as the molecule, how does the IC50 read?
Answer: > 79 µM (inactive)

Question: How did the IC50 turn out when `O=C(NCC(=O)N(Cc1cccs1)C(C(=O)NC1CCCCC1)c1ccco1)c1ccco1` (stereo unspecified) was run?
Answer: > 79 µM (inactive)

Question: `CCOc1ccc(C(C(=O)NCC2CCCO2)N(C(=O)c2snc(C(N)=O)c2N)c2ccccc2F)cc1` (stereo unspecified) was tested. Which IC50 did it give?
Answer: 10.4 µM

Question: How did the IC50 turn out when `CCOC(=O)C1CCN(c2cc3c(cc2NC(=O)c2ccccc2Cl)n(C)c(=O)n3C)CC1` was run?
Answer: > 79 µM (inactive)

Question: How did the IC50 turn out when `COc1cc(Nc2nc3ccccc3n3nnnc23)cc(OC)c1OC` was run?
Answer: > 79 µM (inactive)

Question: With `COc1ccc(/C=N/NC(=O)c2ccc(COc3cccc4cccnc34)cc2)cc1OC` as the molecule, how does the IC50 read?
Answer: 6.02 µM

Question: `NC(=O)c1nsc(C(=O)N(Cc2ccco2)C(C(=O)NCc2ccccc2)c2ccc(O)cc2)c1N` (stereo unspecified) was tested. Which IC50 did it give?
Answer: 45.3 µM (inactive)

Question: With `Cc1ccc(-n2cc(-c3ccccc3)c3c(N4CCOCC4)ncnc32)cc1` as the molecule, how does the IC50 read?
Answer: > 79 µM (inactive)

Question: How did the IC50 turn out when `O=C(COC(=O)c1ccccc1C(=O)OCC(=O)NCCc1c[nH]c2ccccc12)NCCc1c[nH]c2ccccc12` was run?
Answer: > 79 µM (inactive)

Question: `NC(=O)c1cc2ccccc2o/c1=N\NC(=O)c1ccc(F)cc1` was tested. Which IC50 did it give?
Answer: 3.33 µM

Question: How did the IC50 turn out when `Cc1nn(-c2ccccc2)c(N2CCCC2)c1/C=N/NC(=O)c1cc(-c2ccccn2)nc2ccccc12` was run?
Answer: > 79 µM (inactive)

Question: For `CCOC(=O)c1c2c3c(cccc3n(C)c1=O)C(=O)c1ccccc1-2`, which IC50 is on record?
Answer: > 79 µM (inactive)

Question: Which IC50 does the source give for `COc1cc(OC)cc(C(=O)Nc2ccc(C(=O)Nc3ccccc3OC)cc2)c1` here?
Answer: > 79 µM (inactive)

Question: For `COC(=O)c1cc2ccccn2c2c(C(=O)OC)c(C(=O)OC)cc1-2`, which IC50 is on record?
Answer: > 79 µM (inactive)

Question: `COc1ccc(-c2cc(NC(C)=O)c3ncc(-c4cccc(C(C)=O)c4)n3c2)cc1OC` was tested. Which IC50 did it give?
Answer: > 79 µM (inactive)

Question: Which IC50 does the source give for `COc1ccc(-c2cc3nc(-c4ccccc4)cc(N4CCN(C(C)=O)CC4)n3n2)cc1` here?
Answer: 1.59 µM

Question: `CCOc1ccccc1NC(=O)c1oc2ccccc2c1NC(=O)C1CCCO1` (stereo unspecified) was tested. Which IC50 did it give?
Answer: > 79 µM (inactive)

Question: How did the IC50 turn out when `COc1cc(/C=N/NC(=O)c2ccccc2)ccc1OS(=O)(=O)c1ccccc1` was run?
Answer: > 79 µM (inactive)

Question: Which IC50 does the source give for `COc1ccc(-c2csc(NC(=O)CCCc3nc4ccccc4c(=O)[nH]3)n2)cc1OC` here?
Answer: 11.9 µM

Question: Which IC50 does the source give for `COC(=O)c1ccc(N)c(N=CC2=C(O)CC(C)(C)CC2=O)c1` here?
Answer: 41.4 µM (inactive)

Question: How did the IC50 turn out when `Cc1ccc(C=NNc2nc3c([nH]2)c(=O)n(C)c(=O)n3C)cc1` was run?
Answer: > 79 µM (inactive)

Question: `COc1cccc(-c2cnc3c(NC=O)cc(-c4cc(OC)c(OC)c(OC)c4)cn23)c1` was tested. Which IC50 did it give?
Answer: > 79 µM (inactive)

Question: Which IC50 does the source give for `N#Cc1c(-c2ccco2)cc(-c2cccnc2)nc1N` here?
Answer: 41.2 µM (inactive)

Question: For `COc1ccc(-c2cc(C(=O)N(C)Cc3ccc(OC)c(OC)c3OC)c3ccccc3n2)cc1OC`, which IC50 is on record?
Answer: 11.6 µM

Question: How did the IC50 turn out when `O=C(NCC(=O)N(Cc1ccccc1)C(C(=O)NC1CCCCC1)c1ccco1)c1ccco1` (stereo unspecified) was run?
Answer: > 79 µM (inactive)

Question: `COc1cc(NC(=O)c2ccco2)c(OC)cc1NC(=O)c1cc(OC)c(OC)c(OC)c1` was tested. Which IC50 did it give?
Answer: 21 µM (inactive)

Question: For `COc1ccc(-c2ccc3c(c2)S(=O)(=O)c2cccc(C(=O)NC[C@@H]4CCCO4)c2C3=O)cc1OC`, which IC50 is on record?
Answer: > 79 µM (inactive)

Question: `CC(=O)c1cccc(-c2cnc3c(NC=O)cc(-c4ccccc4F)cn23)c1` was tested. Which IC50 did it give?
Answer: 3.28 µM

Question: `CCn1nc(C(=O)Nc2nc(-c3ccccn3)cs2)c2ccccc2c1=O` was tested. Which IC50 did it give?
Answer: 33 µM (inactive)

Question: Which IC50 does the source give for `CNC(=O)COC(=O)/C=C/c1cn(-c2ccccc2)nc1-c1ccc(C)o1` here?
Answer: 37.1 µM (inactive)

Question: With `COc1cc(/C=N/NC(=O)NC23CC4CC(CC(C4)C2)C3)ccc1OCC(N)=O` as the molecule, how does the IC50 read?
Answer: 48.3 µM (inactive)

Question: Which IC50 does the source give for `CCOc1cc(/C=C/c2ccc3cccc([N+](=O)[O-])c3n2)ccc1OCC(=O)N(C)C` here?
Answer: > 79 µM (inactive)
